Laboratory results from US10363257B2 (ZENITH EPIGENETICS LTD., priority 2013, dated 2019).

Tests used:
hIL-6 mRNA = assay: Inhibition of hIL-6 mRNA transcription in LPS-stimulated U937 cells; assay type: cell-based; conditions: Homo sapiens, U-937; PMA-differentiated U937 cells, 1 h pretreatment, 1 ug/mL LPS stimulation, 3 h; read-out: IL-6 activity (Inhibition of hIL-6 mRNA Transcription)
Method: In this example, hIL-6 mRNA in tissue culture cells was quantitated to measure the transcriptional inhibition of hIL-6 when treated with a compound of the invention.
Human leukemic monocyte lymphoma U937 cells (CRL-1593.2) were plated at a density of 3.2×10^4 cells per well in a 96-well plate in 100 μL RPMI-1640 containing 10% FBS and penicillin/streptomycin, and differentiated into macrophages for 3 days in 60 ng/mL PMA ([…]) at 37° C. in 5% CO2 prior to the addition of compound. The cells were pretreated for 1 h with increasing concentrations of test compound in 0.1% DMSO prior to stimulation with 1 ug/mL lipopolysaccharide from Escherichia coli. Triplicate wells were used for each concentration. The cells were incubated at 37° C., 5% CO2 for 3 h before the cells were harvested. At time of harvest, media was removed and cells were rinsed in 200 μL PBS. Cells were harvested using the mRNA Catcher PLUS kit according to manufacturer's instructions. The eluted mRNA was then used in a one-step quantitative real-time PCR reaction using components of the RNA UltraSense™ One-Step Kit (Life Technologies) together with Applied Biosystems TaqMan® primer-probes for hIL-6 and Cyclophilin. Real-time PCR plates were run on a VIa™ 7 real time PCR machine (Applied Biosystems), data was analyzed, normalizing the Ct values for hIL-6 to an internal control, prior to determining the fold expression of each sample, relative to the control.

c-myc = assay: Inhibition of c-myc expression (mRNA, real-time PCR) in MV4-11 cells; assay type: cell-based; conditions: Human AML MV4-11 cells, 3 h, cMYC mRNA
Procedure, shortened: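 One-step TaqMan qPCR of cMYC, normalized to an internal control with Cyclophilin probes run, gave fold expression versus DMSO (0.1%) control. Samples: triplicate MV4-11 wells exposed 3 h at 37° C to rising compound concentrations in IMDM with 10% FBS.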

human AML MV-4-11 cells = assay: Inhibition of cell proliferation in MV4-11 cells (CellTiter Aqueous One); assay type: cell-based; conditions: for IC50: MV4-11, 72 h; for Cell Proliferation activity: 72 h
Procedure, shortened: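 IC50 values come from blank-corrected proliferation relative to DMSO controls, read as 490 nm absorbance 3–4 h after CellTiter Aqueous One addition. Before that, cells seeded at 5×10^4/well were exposed for 72 h (37° C, 5% CO2) to triplicate two-fold compound dilutions spanning 30–0.2 μM.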

[1] = target: T1, Brd4 bromodomain 1 (BRD4(1)) (Homo sapiens, UniProt O60885); assay: Inhibition of tetra-acetylated histone H4 binding to Brd4 bromodomain 1 (TR-FRET); conditions: tetra-acetylated histone H4 peptide, first bromodomain of Brd4
T1 construct: made in house; host or cells: E. coli BL21(DE3)
Procedure, shortened: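 Serially diluted compound (0.2% DMSO) incubated 2 h at room temperature with 200 nM N-His BRD4 bromodomain 1 and 25-50 nM biotinylated tetra-acetyl H4 peptide, detected via Eu-streptavidin/XL665 anti-His. Loss of 665 nm relative to 620 nm signal gave IC50 from dose-response.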

SMILES	IC50 (hIL-6 mRNA) [µM]	IC50 (c-myc) [µM]	IC50 (human AML MV-4-11 cells) [µM]	IC50 [1] [µM]	Cell Proliferation activity (human AML MV-4-11 cells)
Cc1noc(C)c1-c1ccc2[nH]c(=O)n(Cc3ccccc3)c2n1 [Example Compound 2, 3-Benzyl-5-(3,5-dimethylisoxazol-4-yl)-1H-imidazo[4,5-b]pyridin-2(3H)-one]	0.3 to 3	3 to 30	0.3 to 3	≤ 0.3	
Cc1noc(C)c1-c1ccc2c(n1)[nH]c(=O)n2Cc1ccccc1 [Example Compound 3, 1-Benzyl-5-(3,5-dimethylisoxazol-4-yl)-1H-imidazo[4,5-b]pyridin-2(3H)-one]	3 to 30	3 to 30	3 to 30	0.3 to 3	
Cc1noc(C)c1-c1cnc2c(c1)ncn2Cc1ccccc1 [Example Compound 4, 4-(3-Benzyl-3H-imidazo[4,5-b]pyridin-6-yl)-3,5-dimethylisoxazole]	0.3 to 3	0.3 to 3	3 to 30	0.3 to 3	
Cc1noc(C)c1-c1ccc2c(c1)N(Cc1ccccc1)C(=O)NC2 [Example Compound 12, 1-Benzyl-7-(3,5-dimethylisoxazol-4-yl)-3,4-dihydroquinazolin-2(1H)-one]	0.3 to 3	0.3 to 3	0.3 to 3	≤ 0.3	
CCOc1nc2c(N)cc(-c3c(C)noc3C)cc2n1Cc1ccccc1 [Example Compound 17, 1-benzyl-6-(3,5-dimethylisoxazol-4-yl)-2-ethoxy-1H-benzo[d]imidazol-4-amine]	0.3 to 3	≤ 0.3	0.3 to 3	≤ 0.3	
Cc1noc(C)c1-c1cc(C(N)=O)c2[nH]c(=O)n(Cc3ccccc3)c2c1 [Example Compound 21, 1-benzyl-6-(3,5-dimethylisoxazol-4-yl)-2-oxo-2,3-dihydro-1H-benzo[d]imidazole-4-carboxamide]	≤ 0.3		0.3 to 3	≤ 0.3	
Cc1noc(C)c1-c1cc(CN)c2[nH]c(=O)n(Cc3ccccc3)c2c1 [Example Compound 22, 4-(aminomethyl)-1-benzyl-6-(3,5-dimethylisoxazol-4-yl)-1H-benzo[d]imidazol-2(3H)-one]	0.3 to 3	0.3 to 3	0.3 to 3	0.3 to 3	
Cc1noc(C)c1-c1cc2c(cn1)ncn2Cc1ccccc1 [Example Compound 31, 4-(1-benzyl-1H-imidazo[4,5-c]pyridin-6-yl)-3,5-dimethylisoxazole]	0.3 to 3		3 to 30	0.3 to 3	
Cc1noc(C)c1-c1cnc2ncn(Cc3ccc(C(F)(F)F)cc3)c2c1 [Example Compound 41, 3,5-dimethyl-4-(1-(4-(trifluoromethyl)benzyl)-1H-imidazo[4,5-b]pyridin-6-yl)isoxazole]	3 to 30		0.3 to 3	≤ 0.3	
Cc1noc(C)c1-c1cc(C#N)c2nc(C)n(Cc3ccccc3)c2c1 [compound 85, 1-benzyl-6-(3,5-dimethylisoxazol-4-yl)-2-methyl-1H-benzo[d]imidazole-4-carbonitrile]	0.3 to 3	≤ 0.3		≤ 0.3	
COCCNc1nc2c([N+](=O)[O-])cc(-c3c(C)noc3C)cc2n1Cc1ccccc1 [compound 137, 1-benzyl-6-(3,5-dimethylisoxazol-4-yl)-N-(2-methoxyethyl)-4-nitro-1H-benzo[d]imidazol-2-amine]	≤ 0.3		≤ 0.3	≤ 0.3	
Cc1noc(C)c1-c1cc(N)c2c(c1)n(Cc1ccccc1)c(=O)n2C [compound 162, 4-amino-1-benzyl-6-(3,5-dimethylisoxazol-4-yl)-3-methyl-1H-benzo[d]imidazol-2(3H)-one]	≤ 0.3		≤ 0.3	≤ 0.3	

The next lines start with results.

IC50 (hIL-6 mRNA) [µM]	IC50 (c-myc) [µM]	IC50 (human AML MV-4-11 cells) [µM]	IC50 [1] [µM]	SMILES	Cell Proliferation activity (human AML MV-4-11 cells)
0.3 to 3	0.3 to 3	0.3 to 3	0.3 to 3	Cc1noc(C)c1-c1ccc2oc(=O)n(Cc3ccccc3)c2c1 [Example Compound 6, 3-Benzyl-5-(3,5-dimethylisoxazol-4-yl)benzo[d]oxazol-2(3H)-one]	
3 to 30	3 to 30	3 to 30	3 to 30	Cc1noc(C)c1-c1cc(NCc2ccccc2)c2ncn(Cc3ccccc3)c2c1 [Example Compound 9, N,1-Dibenzyl-6-(3,5-dimethylisoxazol-4-yl)-1H-benzo[d]imidazol-4-amine]	
0.3 to 3	0.3 to 3	3 to 30	≤ 0.3	Cc1noc(C)c1-c1cc([N+](=O)[O-])c2nc(C)n(CC3CC3)c2c1 [Example Compound 14, 4-(1-(cyclopropylmethyl)-2-methyl-4-nitro-1H-benzo[d]imidazol-6-yl)-3,5-dimethylisoxazole]	
0.3 to 3	0.3 to 3	0.3 to 3	≤ 0.3	Cc1noc(C)c1-c1cc([N+](=O)[O-])c2[nH]c(=O)n(Cc3ccccc3)c2c1 [Example Compound 15, 1-benzyl-6-(3,5-dimethylisoxazol-4-yl)-4-nitro-1H-benzo[d]imidazol-2(3H)-one]	
0.3 to 3		3 to 30	0.3 to 3	Cc1noc(C)c1-c1ccc2[nH]cc(Nc3ccccc3)c2n1 [Example Compound 23, 5-(3,5-dimethylisoxazol-4-yl)-N-phenyl-1H-pyrrolo[3,2-b]pyridin-3-amine]	
3 to 30			0.3 to 3	Cc1noc(C)c1-c1cnc2c(c1)ncn2Cc1ccc(C(F)(F)F)cc1 [Example Compound 40, 3,5-dimethyl-4-(3-(4-(trifluoromethyl)benzyl)-3H-imidazo[4,5-b]pyridin-6-yl)isoxazole]	Not active
0.3 to 3		0.3 to 3	≤ 0.3	Cc1noc(C)c1-c1cnc2ncn(Cc3ccc(Cl)cc3)c2c1 [Example Compound 43, 4-(1-(4-chlorobenzyl)-1H-imidazo[4,5-b]pyridin-6-yl)-3,5-dimethylisoxazole]	
0.3 to 3	3 to 30		0.3 to 3	Cc1noc(C)c1-c1cnc2nc(C)n(CC3CC3)c2c1 [Example Compound 63, 4-(1-(cyclopropylmethyl)-2-methyl-1H-imidazo[4,5-b]pyridin-6-yl)-3,5-dimethylisoxazole]	
0.3 to 3		3 to 30	≤ 0.3	Cc1noc(C)c1-c1cnc2nc(C)n(Cc3ccc(C#N)cc3)c2c1 [compound 70, 4-((6-(3,5-dimethylisoxazol-4-yl)-2-methyl-1H-imidazo[4,5-b]pyridin-1-yl)methyl)benzonitrile]	
≤ 0.3		0.3 to 3	≤ 0.3	Cc1noc(C)c1-c1cc([N+](=O)[O-])c2nc(N3CCCC3)n(Cc3ccccc3)c2c1 [compound 135, 4-(1-benzyl-4-nitro-2-(pyrrolidin-1-yl)-1H-benzo[d]imidazol-6-yl)-3,5-dimethylisoxazole]	
0.3 to 3		0.3 to 3	≤ 0.3	Cc1noc(C)c1-c1cc([N+](=O)[O-])c2nc(N3CCN(C)CC3)n(Cc3ccccc3)c2c1 [compound 136, 4-(1-benzyl-2-(4-methylpiperazin-1-yl)-4-nitro-1H-benzo[d]imidazol-6-yl)-3,5-dimethylisoxazole]	
0.3 to 3			≤ 0.3	Cc1noc(C)c1-c1cc([N+](=O)[O-])c2c(c1)n(Cc1ccccc1)c(=O)n2C [compound 150, 1-benzyl-6-(3,5-dimethylisoxazol-4-yl)-3-methyl-4-nitro-1H-benzo[d]imidazol-2(3H)-one]	Not active
3 to 30		3 to 30	≤ 0.3	Cc1nc2ncc(-c3ccnn3C)cc2n1Cc1ccccc1 [compound 154, 1-benzyl-2-methyl-6-(1-methyl-1H-pyrazol-5-yl)-1H-imidazo[4,5-b]pyridine]	
≤ 0.3		≤ 0.3	≤ 0.3	Cc1noc(C)c1-c1cnc2nc(NC3CCC(O)CC3)n(Cc3ccccc3)c2c1 (stereo not shown) [compound 207, 4-((1-benzyl-6-(3,5-dimethylisoxazol-4-yl)-1H-imidazo[4,5-b]pyridin-2-yl)amino)cyclohexanol]	
